Reference: patent publication US20050142111A1, “Method to prevent transplant rejection by stable expression of heme oxygenase-1” (priority 2003, published 2005)

Key:
[1] = test system: LEW heart grafts to F344 recipients; experiment: Allogeneic heart transplant graft survival; type: in vivo, rat
Procedure: LEW (RT1′) and F344 (RT1^lvl) rats were purchased from the Institute of Laboratory Animals, Medical School Hannover, Germany, and maintained in the Laboratory Animal Unit, The University of Hong Kong. All experimental procedures were performed according to institutional guidelines and approved by the Committee on the Use of Live Animal in Teaching and Research. Allogeneic heart transplants were performed using LEW and F344 rats weighing from 200-250 grams as donors or recipients respectively. For the syngeneic graft, LEW rats were used as recipients. In brief, after in situ perfusion of donor heart grafts with the HTK solution (Koehler Chemie, Germany), 1×10^12 vector genomes of rAAV/GFP or rAAV/HO-1 were administered into the heart graft via the coronary artery. Grafts were then preserved in cold HTK solution for 6 hours before the transplant. The implantation procedure was as described in the literature. Graft function was monitored by daily palpation, and the allograft rejection was defined by full cessation of ventricular contraction, and confirmed by pathological examination.
Heme oxygenase-1 inhibitor, zinc protoprophyrin IX (ZnPPIX, Calbiochem-Novabiochem, Germany) was administered intraperitoneally according to the experimental protocols. […]

HO = target: T1, HO (Rattus norvegicus, UniProt P06762); experiment: Blocking of HO activity by ZnPPIX, carboxyhemoglobin in peripheral blood of recipients; type: in vivo; conditions: 2 mg/kg/day intraperitoneally to recipients
T1 construct: expressed in transfected cells; host or cells: LEW rat heart allografts transduced with rAAV/HO-1, in F344 rat recipients (in vivo)
T1 sequence (P06762 1-289): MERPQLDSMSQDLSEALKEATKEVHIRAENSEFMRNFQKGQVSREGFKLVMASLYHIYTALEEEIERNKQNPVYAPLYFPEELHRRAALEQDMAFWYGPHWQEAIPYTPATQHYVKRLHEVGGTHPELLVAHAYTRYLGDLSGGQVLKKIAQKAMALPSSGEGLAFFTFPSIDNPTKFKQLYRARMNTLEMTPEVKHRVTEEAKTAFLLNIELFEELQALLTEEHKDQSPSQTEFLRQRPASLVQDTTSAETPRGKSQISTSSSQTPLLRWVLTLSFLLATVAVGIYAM
Procedure: Heme oxygenase-1 inhibitor, zinc protoprophyrin IX (ZnPPIX, Calbiochem-Novabiochem, Germany) was administered intraperitoneally according to the experimental protocols.
The HO enzyme activity was measured by two of its end products: carbon monoxide and biliverdin/bilirubin. The amount of carbon monoxide was measured by spectrophotometry providing a determination of carboxyhemoglobin in the peripheral blood of the animals. The level of intragraft bilirubin was measured by the method as described. In brief, the frozen samples of grafts were homogenized in ice-cold sucrose and Tri-HCl buffer. The microsomal pellet was obtained after centrifugation, and re-suspended in MgCl2-potassium phosphate buffer. Sample protein was then incubated with the reaction mixture containing rat liver cytosol, hemin, glucose-6-phosphate, glucose-6-phosphate dehydrogenase and NADPH (Sigma-Aldrich, St. Louis) for 60 minutes at 37° C. The generated bilirubin was measured by reacting with diazotized surfanilic acid to yield azobilirubin using spectrophotometry. The level of intragraft bilirubin was deduced by the ratio of its contents in the sample/naive heart. […]

C=CC1=C(C)c2cc3[n-]c(cc4[n-]c(cc5nc(cc1n2)C(C)=C5C=C)c(C)c4CCC(=O)O)c(CCC(=O)O)c3C.[Zn+2] [ZnPPIX, zinc protoporphyrin IX]
graft survival rate in rAAV/HO-1+CsA group ([1]; ZnPPIX administered from day 31 to 100): remained unchanged
graft survival in rAAV/HO-1+CsA group ([1]; combined administration of ZnPPIX from day 0 to 30): shortened
HO activity, level of carboxyhemoglobin (HO): significantly inhibited
